From patent US9849083B2, “Sublingual administration of statins” (LondonPharma Ltd., priority 2011, dated 2017)
Structures can show the parent of a compound that is named as a salt. Where two headings read alike, the source gives them in different places. Values belong to the molecule of their own block, whether it stands above or below them.

Legend:
physchem = details: aqueous with cosolvent or surfactant or cyclodextrin
[1] = human, in vivo; for Tmax (median): male
[2] = Safety and tolerability in phase 1 trial of sublingual statin sprays; assay type: in vivo, human; details: all mild; simvastatin AE after 40 mg; fluvastatin with both doses
Procedure: The secondary objectives of this study were to: • establish the safety, tolerability, local tolerance and taste acceptance of the study medications
Safety was evaluated by adverse event (AE) monitoring, evaluation of any medically significant changes, based on physical examination findings, vital signs, and electrocardiograms (ECGs) assessments, clinical laboratory testing, local tolerance and taste acceptance.
Safety data was summarised by descriptive methods; continuous variables by summary statistics and categorical data by absolute and relative frequencies.

clinical = details: male, human, in vivo; for Tmax: Tmax (median)
[3] = Phase 1 pharmacokinetic study of sublingual statin sprays in healthy male subjects; details: for AUC(0-inf) / AUC(0-t) / Cmax / Tmax: male, human, plasma; for Tmax: Tmax (median); for Tmax / Tmax (median): sublingual spray, healthy male subjects, simvastatin acid measured after simvastatin spray
[4] = Chemical stability / compatibility of the statin in formulations; assay type: physicochemical
[5] = Solubility of the statin in formulation carriers; details: aqueous-based formulation, water

- solubility (physchem): ≥ 25 mg/mL
SMILES: CC(C)n1c(/C=C/C(O)CC(O)CC(=O)O)c(-c2ccc(F)cc2)c2ccccc21 (centres unmarked) [Fluvastatin (sodium salt), fluvastatin sodium]

- CL/F (mean) ([1]; 10 mg): 376.22 L/h
- CL/F (mean) ([1]; 25 mg): 363.21 L/h
- Tmax (median) ([1]; 10 mg): 0.56 h
- Tmax (median) ([1]; 25 mg): 0.57 h
- AUC(0-inf) (clinical; 10 mg): 37.2 ng·h/mL
- AUC(0-t) (clinical; 10 mg): 36.3 ng·h/mL
- Cmax (clinical; 10 mg): 34.2 ng/mL
- half-life (clinical; 10 mg): 1.18 h
- Tmax (clinical; 10 mg): ~0.5 h
- AUC(0-inf) (clinical; 25 mg): 91.7 ng·h/mL
- AUC(0-t) (clinical; 25 mg): 89.9 ng·h/mL
- Cmax (clinical; 25 mg): 88 ng/mL
- half-life (clinical; 25 mg): 1.4 h
- Tmax (clinical; 25 mg): ~0.5 h
SMILES: CC(C)n1c(/C=C/C(O)CC(O)CC(=O)O)c(-c2ccc(F)cc2)c2ccccc21 (centres unmarked) [Fluvastatin, fluvastatin]
- Treatment-emergent AEs reported [2]: 5 related and 2 unrelated

- CL/F (mean) ([1]; 20 mg): 685.48 L/h
- CL/F (mean) ([1]; 40 mg): 820.32 L/h
- AUC(0-inf) ([3]; 20 mg): 31.2 ng·h/mL
- AUC(0-t) ([3]; 20 mg): 30 ng·h/mL
- Cmax ([3]; 20 mg): 12.3 ng/mL
- Tmax ([3]; 20 mg, 20 mg): 1.3 h
- AUC(0-inf) ([3]; 40 mg): 80.6 ng·h/mL
- AUC(0-t) ([3]; 40 mg): 78.8 ng·h/mL
- Cmax ([3]; 40 mg): 44.5 ng/mL
- Tmax ([3]; 40 mg, 40 mg): 1.3 h
- Tmax (median) ([3]; 20 mg): 1.33 h
- Tmax (median) ([3]; 40 mg): 1.29 h
- half-life (clinical; 20 mg): 1.58 h
- half-life (clinical; 40 mg): 1.32 h
SMILES: CC[C@H](C)C(=O)O[C@H]1C[C@H](O)C=C2C=C[C@H](C)[C@H](CC[C@@H](O)C[C@@H](O)CC(=O)O)[C@H]21 [Pravastatin, pravastatin]
- Treatment-emergent AEs reported [2]: none

- CL/F (mean) ([1]; 20 mg): 609.03 L/h
- CL/F (mean) ([1]; 40 mg): 921.93 L/h
- AUC(0-inf) (clinical; 20 mg): 37.7 ng·h/mL
- AUC(0-t) (clinical; 20 mg): 21.3 ng·h/mL
- Cmax (clinical; 20 mg): 6.1 ng/mL
- Vd/F (clinical; 20 mg): 3960 L
- half-life (clinical; 20 mg): 5.73 h
- Tmax (clinical; 20 mg): 2.19 h
- AUC(0-inf) (clinical; 40 mg): 47.6 ng·h/mL
- AUC(0-t) (clinical; 40 mg): 32.5 ng·h/mL
- Cmax (clinical; 40 mg): 9.88 ng/mL
- Vd/F (clinical; 40 mg): 4760 L
- half-life (clinical; 40 mg): 3.65 h
- Tmax (clinical; 40 mg): 3.88 h
SMILES: CCC(C)(C)C(=O)O[C@H]1C[C@@H](C)C=C2C=C[C@H](C)[C@H](CC[C@@H](O)C[C@@H](O)CC(=O)O)[C@H]21 [Simvastatin Acid, simvastatin acid]

- CL/F (mean) ([1]; 20 mg): 744.33 L/h
- CL/F (mean) ([1]; 40 mg): 764.67 L/h
- Tmax ([3]; 20 mg, 20 mg): 1.88 h
- Tmax ([3]; 40 mg, 40 mg): 1.88 h
- Vd/F (clinical; 20 mg): 1980 L
- half-life (clinical; 20 mg): 1.8 h
- Vd/F (clinical; 40 mg): 2070 L
- half-life (clinical; 40 mg): 1.9 h
SMILES: CCC(C)(C)C(=O)O[C@H]1C[C@@H](C)C=C2C=C[C@H](C)[C@H](CC[C@@H]3C[C@@H](O)CC(=O)O3)[C@H]21 [Simvastatin, simvastatin]
- Treatment-emergent AEs reported [2]: one

- Reaction with ethanol [4]: react with ethanol
- solubility [5]: ≥ 150 mg/mL
SMILES: CC[C@H](C)C(=O)O[C@H]1C[C@H](O)C=C2C=C[C@H](C)[C@H](CC[C@@H](O)C[C@@H](O)CC(=O)O)[C@H]21 [pravastatin sodium]
